{"source": "patent US20250250303A1", "about": "(THE TRUSTEES OF COLUMBIA UNIVERSITY IN THE CITY OF NEW YORK, priority 2022, published 2025)", "key": {"[1]": {"tested_on": "CAL33", "assay": "IR signaling in cancer cells, CAL33", "assay_type": "cell-based", "details": "10, 100 or 300 nM for 10 minutes"}, "[2]": {"target": "T1, IR F701A/F705A (Homo sapiens, UniProt P06213, F728A/F732A)", "T1 construct": "expressed in transfected cells; host or cells: 293 FT cells", "T1 sequence (P06213 28-1370 isoform P06213-2 F728A/F732A limits assumed)": "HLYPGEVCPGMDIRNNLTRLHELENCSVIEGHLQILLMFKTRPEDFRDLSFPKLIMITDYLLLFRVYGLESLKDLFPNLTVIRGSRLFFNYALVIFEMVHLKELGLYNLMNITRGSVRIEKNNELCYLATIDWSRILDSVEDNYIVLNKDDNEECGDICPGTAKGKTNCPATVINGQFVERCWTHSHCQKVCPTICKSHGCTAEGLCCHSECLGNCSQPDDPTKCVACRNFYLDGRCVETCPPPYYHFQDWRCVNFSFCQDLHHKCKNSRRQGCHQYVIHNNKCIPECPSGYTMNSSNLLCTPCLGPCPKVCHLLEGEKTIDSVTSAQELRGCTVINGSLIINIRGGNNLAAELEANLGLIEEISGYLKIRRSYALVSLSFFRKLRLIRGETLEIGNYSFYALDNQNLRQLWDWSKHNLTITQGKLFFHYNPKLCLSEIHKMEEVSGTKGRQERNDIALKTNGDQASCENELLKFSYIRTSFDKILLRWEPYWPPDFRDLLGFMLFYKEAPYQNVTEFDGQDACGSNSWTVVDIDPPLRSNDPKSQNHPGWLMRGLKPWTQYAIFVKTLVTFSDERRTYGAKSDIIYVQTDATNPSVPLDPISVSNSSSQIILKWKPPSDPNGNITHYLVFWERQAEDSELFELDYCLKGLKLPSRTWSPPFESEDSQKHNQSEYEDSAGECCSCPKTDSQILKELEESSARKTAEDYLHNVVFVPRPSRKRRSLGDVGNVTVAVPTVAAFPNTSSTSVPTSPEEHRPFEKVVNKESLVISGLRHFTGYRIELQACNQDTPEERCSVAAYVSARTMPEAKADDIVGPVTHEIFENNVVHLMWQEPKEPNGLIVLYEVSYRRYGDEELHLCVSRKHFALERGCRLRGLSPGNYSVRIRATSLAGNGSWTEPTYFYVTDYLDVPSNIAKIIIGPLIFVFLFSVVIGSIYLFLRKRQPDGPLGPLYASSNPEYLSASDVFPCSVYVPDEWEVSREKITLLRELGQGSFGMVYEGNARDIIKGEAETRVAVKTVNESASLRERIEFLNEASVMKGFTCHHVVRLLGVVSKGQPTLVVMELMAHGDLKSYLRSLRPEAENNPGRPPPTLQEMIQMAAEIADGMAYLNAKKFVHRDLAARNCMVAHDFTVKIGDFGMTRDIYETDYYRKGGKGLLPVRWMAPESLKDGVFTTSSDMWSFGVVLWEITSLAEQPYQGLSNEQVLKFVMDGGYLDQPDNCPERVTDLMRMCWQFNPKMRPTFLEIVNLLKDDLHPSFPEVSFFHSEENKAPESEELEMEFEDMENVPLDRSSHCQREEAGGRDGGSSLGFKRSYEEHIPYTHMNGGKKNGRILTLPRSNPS", "T1 sequence (P06213 763-1382 partner limits assumed)": "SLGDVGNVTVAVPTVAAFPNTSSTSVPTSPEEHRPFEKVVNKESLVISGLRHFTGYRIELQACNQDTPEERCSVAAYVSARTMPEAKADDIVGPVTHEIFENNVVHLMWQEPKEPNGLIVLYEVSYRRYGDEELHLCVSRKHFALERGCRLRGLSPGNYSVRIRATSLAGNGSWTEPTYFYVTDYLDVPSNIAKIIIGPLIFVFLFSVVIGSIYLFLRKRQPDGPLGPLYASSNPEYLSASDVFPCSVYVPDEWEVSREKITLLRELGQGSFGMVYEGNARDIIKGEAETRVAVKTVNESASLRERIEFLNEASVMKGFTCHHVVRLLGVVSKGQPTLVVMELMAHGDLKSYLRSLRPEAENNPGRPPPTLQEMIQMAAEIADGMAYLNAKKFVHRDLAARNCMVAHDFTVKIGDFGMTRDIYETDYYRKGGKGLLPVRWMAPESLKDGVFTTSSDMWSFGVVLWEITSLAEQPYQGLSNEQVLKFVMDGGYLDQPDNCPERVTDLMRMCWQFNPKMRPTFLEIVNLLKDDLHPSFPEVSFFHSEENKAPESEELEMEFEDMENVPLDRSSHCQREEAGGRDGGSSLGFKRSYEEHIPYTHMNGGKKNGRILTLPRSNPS", "assay": "IR activation assay in 293 FT cells, IR F701A/F705A mutant", "assay_type": "cell-based", "details": "10 min"}, "[3]": {"target": "IR (Homo sapiens, UniProt P06213)", "sequence (P06213 28-758 limits assumed)": "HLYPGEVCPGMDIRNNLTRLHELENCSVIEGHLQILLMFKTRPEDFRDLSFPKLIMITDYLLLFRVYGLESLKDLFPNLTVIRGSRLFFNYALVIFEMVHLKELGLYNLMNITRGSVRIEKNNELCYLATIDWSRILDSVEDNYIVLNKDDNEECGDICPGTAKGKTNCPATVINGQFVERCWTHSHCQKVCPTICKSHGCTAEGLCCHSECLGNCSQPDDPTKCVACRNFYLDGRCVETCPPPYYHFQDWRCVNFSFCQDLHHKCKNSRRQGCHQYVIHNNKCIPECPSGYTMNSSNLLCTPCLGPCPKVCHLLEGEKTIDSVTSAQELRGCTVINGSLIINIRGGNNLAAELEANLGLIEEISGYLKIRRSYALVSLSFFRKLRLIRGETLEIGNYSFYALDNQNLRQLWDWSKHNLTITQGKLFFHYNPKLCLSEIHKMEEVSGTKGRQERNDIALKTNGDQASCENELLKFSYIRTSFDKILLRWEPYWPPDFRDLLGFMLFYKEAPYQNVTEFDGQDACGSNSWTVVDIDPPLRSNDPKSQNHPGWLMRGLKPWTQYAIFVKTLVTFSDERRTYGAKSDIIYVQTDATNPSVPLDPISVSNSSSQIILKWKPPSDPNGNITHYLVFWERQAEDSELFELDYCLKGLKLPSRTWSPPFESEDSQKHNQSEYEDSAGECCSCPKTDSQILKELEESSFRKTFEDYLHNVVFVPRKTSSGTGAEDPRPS", "sequence (P06213 763-1382 partner limits assumed)": "as the sequence (P06213 763-1382 partner limits assumed) above", "details": "cited from earlier work"}, "[4]": {"assay": "Insulin tolerance test", "assay_type": "in vivo, mice", "details": "intraperitoneal", "protocol": "Insulin tolerance tests were performed as described previously with some modification. Briefly, 2-3 months old male mice were fasted for 2 hr. and their blood glucose levels (T=0) were measured with tail bleeding using a glucometer (AlphaTRAK). After then, mice were injected intraperitoneally with Humulin (6 nmol/kg body weight), S597 (9 nmol/kg), S597-S20D (9 nmol/kg), S597-W6A (9 nmol/kg), S597-F27A (9 nmol/kg), or S597-N20 (27 nmol/kg), and their blood glucose levels were measured at the indicated time points after injection."}, "[5]": {"tested_on": "upstream MAPK pathway proteins (e.g., SOS1, SHP2)", "assay": "Quantitative phosphoproteomics of skeletal muscle", "assay_type": "in vivo, mice", "details": "compared to insulin", "protocol": "FIG. 6A illustrates sequences of S597 and analogs. […] Liver (3 min) and skeletal muscle (5 min) were collected after injection. Quantification of data shown in Mean±SD. […] Two-tailed student t-test; *p<0.05; **p<0.01; ***p<0.001; ****p<0.0001 (PBS set as the control); ††p<0.01 and ††††p<0.0001. […] Compared to insulin-treated samples, blue and red sites indicate downregulation and upregulation of phosphorylation by S597, respectively."}, "[6]": {"target": "T2, IR F64A (Homo sapiens, UniProt P06213, F91A)", "T2 construct": "expressed in transfected cells; host or cells: 293 FT cells", "T2 sequence (P06213 28-1370 isoform P06213-2 F91A limits assumed)": "as the sequence (P06213 28-1370 isoform P06213-2 F728A/F732A limits assumed) above, with F64A, A701F, A705F counted along it", "T2 sequence (P06213 763-1382 partner limits assumed)": "as the sequence (P06213 763-1382 partner limits assumed) above", "assay": "IR activation assay in 293 FT cells, IR F64A mutant", "assay_type": "cell-based", "details": "10 nM for 10 min"}, "[7]": {"tested_on": "full-length IGF1R", "assay": "In vitro competition assay for full-length IGF1R", "assay_type": "binding"}, "[8]": {"target": "T3, IR R14A (Homo sapiens, UniProt P06213, R41A)", "T3 construct": "expressed in transfected cells; host or cells: 293 FT cells", "T3 sequence (P06213 28-1370 isoform P06213-2 R41A limits assumed)": "as the sequence (P06213 28-1370 isoform P06213-2 F728A/F732A limits assumed) above, with R14A, A701F, A705F counted along it", "T3 sequence (P06213 763-1382 partner limits assumed)": "as the sequence (P06213 763-1382 partner limits assumed) above", "assay": "IR activation assay in 293 FT cells, IR R14A mutant", "assay_type": "cell-based", "details": "10 min"}, "[9]": {"tested_on": "SREBP1", "assay": "Immunofluorescence assay for SREBP1 translocation in primary hepatocytes", "assay_type": "cell-based, mouse", "details": "100 nM for 30 min", "protocol": "Primary hepatocytes were as described in the primary hepatocyte isolation section. […] Cells were fixed with 4% paraformaldehyde for 10 min. The fixed cells were incubated with PBS for 30 min and 3% BSA in PBS with 0.1% Triton X-100 (0.1% PBST) for 1 hr., and then treated with anti-SREBP1 antibodies (20B12, Millipore, Cat. #MABS1987, 1:200) in 3% BSA in 0.1% PBST at 4° C. overnight. After being washed, cells were incubated with secondary antibodies (Alexa Fluor 488 goat anti-rabbit, Invitrogen, Cat. #A11008, 1:200) for 1 hr. Cells were washed and mounted on microscope slides in ProLong Gold Antifade reagent with DAPI (Invitrogen). Images were acquired as a series of 0.2 μm stacks with a Leica Thunder Imager (Leica Microsystems Inc.). Raw images were deconvolved using LAS X Software (Leica Microsystems Inc.). The nuclear edges and the nuclear SREBP1 signal were defined with Image J. Identical exposure times and magnifications were used for all comparative analyses."}, "[10]": {"target": "T4, IR R345A (Homo sapiens, UniProt P06213, R372A)", "T4 construct": "expressed in transfected cells; host or cells: 293 FT cells", "T4 sequence (P06213 28-1370 isoform P06213-2 R372A limits assumed)": "as the sequence (P06213 28-1370 isoform P06213-2 F728A/F732A limits assumed) above, with R345A, A701F, A705F counted along it", "T4 sequence (P06213 763-1382 partner limits assumed)": "as the sequence (P06213 763-1382 partner limits assumed) above", "assay": "IR activation assay in 293 FT cells, IR R345A mutant", "assay_type": "cell-based", "details": "10 nM for 10 min"}, "[11]": {"tested_on": "MCF7", "assay": "IR signaling in cancer cells, MCF7", "assay_type": "cell-based", "details": "10, 100 or 300 nM for 10 minutes"}, "[12]": {"target": "T5, IR D496K (Homo sapiens, UniProt P06213, D523K)", "T5 construct": "expressed in transfected cells; host or cells: 293 FT cells", "T5 sequence (P06213 28-1370 isoform P06213-2 D523K limits assumed)": "as the sequence (P06213 28-1370 isoform P06213-2 F728A/F732A limits assumed) above, with D496K, A701F, A705F counted along it", "T5 sequence (P06213 763-1382 partner limits assumed)": "as the sequence (P06213 763-1382 partner limits assumed) above", "assay": "IR activation assay in 293 FT cells, IR D496K mutant", "assay_type": "cell-based", "details": "10 min"}, "[13]": {"target": "T6, IR R14W (Homo sapiens, UniProt P06213, R41W)", "T6 construct": "expressed in transfected cells; host or cells: 293 FT cells", "T6 sequence (P06213 28-1370 isoform P06213-2 R41W limits assumed)": "as the sequence (P06213 28-1370 isoform P06213-2 F728A/F732A limits assumed) above, with R14W, A701F, A705F counted along it", "T6 sequence (P06213 763-1382 partner limits assumed)": "as the sequence (P06213 763-1382 partner limits assumed) above", "assay": "IR activation assay in 293 FT cells, IR R14W mutant", "assay_type": "cell-based", "details": "10 min"}}, "note": "Bridge positions count the residues as written; N and C are the ends. Peptide text beside a SMILES is read from it.", "data": [{"smiles": "CC[C@H](C)[C@H](NC(=O)[C@H](CCC(N)=O)NC(=O)[C@H](C)NC(=O)[C@H](Cc1c[nH]c2ccccc12)NC(=O)[C@H](CCC(=O)O)NC(=O)[C@H](CCC(=O)O)NC(=O)[C@H](CCC(=O)O)NC(=O)[C@H](CC(C)C)NC(=O)[C@H](CO)NC(C)=O)C(=O)N[C@@H](CCC(=O)O)C(=O)N[C@H]1CSSC[C@@H](C(=O)N2CCC[C@H]2C(=O)N[C@@H](CO)C(=O)N[C@@H](CCC(=O)O)C(=O)N[C@@H](CO)C(=O)N[C@@H](Cc2ccccc2)C(=O)N[C@@H](Cc2ccc(O)cc2)C(=O)N[C@@H](CC(=O)O)C(=O)N[C@@H](Cc2c[nH]c3ccccc23)C(=O)N[C@@H](Cc2ccccc2)C(=O)N[C@@H](CCC(=O)O)C(=O)N[C@@H](CCCNC(=N)N)C(=O)N[C@@H](CCC(N)=O)C(=O)N[C@@H](CC(C)C)C(N)=O)NC(=O)CNC(=O)[C@H](CCCNC(=N)N)NC(=O)CNC(=O)[C@H](Cc2ccc(O)cc2)NC(=O)[C@H](C(C)C)NC(=O)[C@H](CCC(=O)O)NC1=O", "note": "[S597] (Ac-SLEEEWAQIECEVYGRGCPSESFYDWFERQL-NH2; disulfide 11-18)", "values": [{"measurement": "IR signaling", "setting": "[1]", "value": "failed to activate"}, {"measurement": "IR activation (pY IR)", "setting": "[2]", "value": "fully activated"}, {"measurement": "affinity for the IR", "setting": "[3]", "value": "sub-micromolar"}, {"measurement": "blood glucose levels in ITT", "setting": "[4]; FIGS. 10A, 8F, 8G", "value": "lowered"}, {"measurement": "blood glucose in insulin tolerance assays", "setting": "[4]; FIGS. 12B, 12C", "value": "lowered blood glucose in mice as effectively as insulin"}, {"measurement": "phosphorylation levels of upstream MAPK pathway proteins (e.g., SOS1, SHP2)", "setting": "[5]", "value": "significantly reduced"}, {"measurement": "IR activation (pY IR)", "setting": "[6]", "value": "could still be activated"}, {"measurement": "binding to IGF1R", "setting": "[7]", "value": "do not bind"}, {"measurement": "IR activation (pY IR)", "setting": "[8]", "value": "fully activated"}, {"measurement": "nuclear translocation of SREBP1", "setting": "[9]", "value": "stimulated to the same level"}, {"measurement": "IR activation (pY IR)", "setting": "[10]", "value": "fully activated"}, {"measurement": "IR signaling", "setting": "[11]", "value": "failed to activate"}, {"measurement": "IR activation (pY IR)", "setting": "[12]", "value": "fully activated"}, {"measurement": "IR activation (pY IR)", "setting": "[13]", "value": "fully activated"}]}]}
